The values below come from patent publication US20230399312A1, “SUBSTITUTED PYRIMIDINES AND METHODS OF USE” (THERAVANCE BIOPHARMA R&D IP, LLC, priority 2020, published 2023).

Each structure is given as a SMILES string. pKi: −log10 of the molar value.

Assay [1] addresses T1, recombinant human ALK5 (TGF-βR1) protein (Homo sapiens, UniProt P36897).
T1 construct: purchased Life Technologies PR9075A
T1 sequence (P36897 34-503): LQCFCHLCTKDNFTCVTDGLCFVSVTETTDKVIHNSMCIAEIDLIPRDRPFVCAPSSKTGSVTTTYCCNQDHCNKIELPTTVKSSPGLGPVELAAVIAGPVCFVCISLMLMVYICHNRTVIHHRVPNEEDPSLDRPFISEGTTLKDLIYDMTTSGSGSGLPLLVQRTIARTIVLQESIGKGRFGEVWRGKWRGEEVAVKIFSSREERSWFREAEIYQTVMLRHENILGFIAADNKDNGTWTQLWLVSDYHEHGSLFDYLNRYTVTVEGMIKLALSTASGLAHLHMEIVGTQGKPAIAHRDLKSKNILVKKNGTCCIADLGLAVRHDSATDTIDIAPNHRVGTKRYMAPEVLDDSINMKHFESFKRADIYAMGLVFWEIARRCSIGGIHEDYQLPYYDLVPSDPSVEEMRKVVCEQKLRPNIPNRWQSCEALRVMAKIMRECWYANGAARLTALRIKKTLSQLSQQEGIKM
In words: Biochemical ALK5 (TGF-βR1) assay to measure pKi (LANCE Ultra ULight kinase assay). The note with it: apparent pKi, converted from pIC50 by Cheng-Prusoff. Put shortly:
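Cmpd + enzyme, 60 min RT; ATP from 125 μM (5×) stock, 60 min 37 °C; stop 12 mM EDTA/Eu anti-pThr1342 Topo2α Ab (pH 7.0 buffer); TR-FRET 665 nm. DMSO = max, SD-208 = min signal. 4-PL pIC50 → pKi (Cheng-Prusoff).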
For orientation: In TR-FRET formats the signal depends on donor and acceptor labels being close together.

Assay [2] relates to TGF-β-stimulated SMAD3 phosphorylation in BEAS-2B cells. In words: Cellular ALK5 potency assay, inhibition of TGF-β stimulated pSMAD3 formation in BEAS-2B cells. Format: cell-based. The note with it: Homo sapiens, pSMAD3, TGF-β 10 ng/mL, read-out: BEAS2B pIC50 (converted). The procedure, abridged: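 Cells were seeded overnight, rinsed into HEPES/BSA-supplemented HBSS, and dosed with serially diluted compound for 1 h at 37 °C, 5% CO2. TGF-β stimulation (10 ng/mL final) followed for 30 min, then lysis and AlphaLISA pSMAD3 measurement; potency reported as pIC50.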

For the molecule `Cc1cccc(-c2nc(Nc3ccnc(Nc4nc(C(=O)O)cs4)n3)c3cccn3n2)n1` [Compound 1022, 2-[[4-[[2-(6-methyl-2-pyridyl)pyrrolo[2,1-f][1,2,4]triazin-4-yl]amino]pyrimidin-2-yl]amino]thiazole-4-carboxylic acid], the pKi in assay [1] was 8.50 to 9.40. For the same molecule, in assay [2], the IC50 is 200 to 1260 nM.

Turning to `Cc1cccc(-c2nc(Nc3ccnc(Nc4csc(C(=O)O)c4)n3)c3cccn3n2)n1` [Compound 1023, 4-[[4-[[2-(6-methyl-2-pyridyl)pyrrolo[2,1-f][1,2,4]triazin-4-yl]amino]pyrimidin-2-yl]amino]thiophene-2-carboxylic acid], in assay [1], the pKi is 8.50 to 9.40. For the same molecule, in assay [2], the IC50 is 200 to 1260 nM.

`COC(=O)c1ccc(Nc2nccc(Nc3nc(-c4cccc(C)n4)nn4cccc34)n2)cn1` [Compound 1024, methyl 5-[[4-[[2-(6-methyl-2-pyridyl)pyrrolo[2,1-f][1,2,4]triazin-4-yl]amino]pyrimidin-2-yl]amino]pyridine-2-carboxylate]: in assay [1], the pKi was 9.50 to 10.40. The IC50 in assay [2] is 25.1 to 158 nM.

As to `Cc1cccc(-c2nc(Nc3ccnc(Nc4cc(C(=O)O)cs4)n3)c3cccn3n2)n1` [Compound 1025, 5-[[4-[[2-(6-methyl-2-pyridyl)pyrrolo[2,1-f][1,2,4]triazin-4-yl]amino]pyrimidin-2-yl]amino]thiophene-3-carboxylic acid], the pKi in assay [1] was 9.50 to 10.40. Besides, the IC50 in assay [2] was 25.1 to 158 nM.

Regarding `Cc1cccc(-c2nc(Nc3ccnc(Nc4ccc(NC(=O)C5CNC5)cc4)n3)c3cccn3n2)n1` [Compound 1026, N-[4-[[4-[[2-(6-methyl-2-pyridyl)pyrrolo[2,1-f][1,2,4]triazin-4-yl]amino]pyrimidin-2-yl]amino]phenyl]azetidine-3-carboxamide], the pKi in assay [1] is 9.50 to 10.40. Also, in assay [2], the IC50 is 25.1 to 158 nM.

As for `Cc1cccc(-c2nc(Nc3ccnc(Nc4ccc(NC(=O)C5CCNC5)cc4)n3)c3cccn3n2)n1` (centres unmarked) [Compound 1027, N-[4-[[4-[[2-(6-methyl-2-pyridyl)pyrrolo[2,1-f][1,2,4]triazin-4-yl]amino]pyrimidin-2-yl]amino]phenyl]pyrrolidine-3-carboxamide], the pKi in assay [1] is 9.50 to 10.40. In addition, the IC50 in assay [2] was 25.1 to 158 nM.

For the molecule `Cc1cccc(-c2nc(Nc3ccnc(Nc4ccc(NC(=O)C5CCNCC5)cc4)n3)c3cccn3n2)n1` [Compound 1028, N-[4-[[4-[[2-(6-methyl-2-pyridyl)pyrrolo[2,1-f][1,2,4]triazin-4-yl]amino]pyrimidin-2-yl]amino]phenyl]piperidine-4-carboxamide], in assay [1], the pKi was 9.50 to 10.40. Also, the IC50 in assay [2] is 25.1 to 158 nM.

Consider `Cc1cccc(-c2nc(Nc3ccnc(Nc4ccc(NC(=O)CC5CNC5)cc4)n3)c3cccn3n2)n1` [Compound 1029, 2-(azetidin-3-yl)-N-[4-[[4-[[2-(6-methyl-2-pyridyl)pyrrolo[2,1-f][1,2,4]triazin-4-yl]amino]pyrimidin-2-yl]amino]phenyl]acetamide], for which the pKi in assay [1] is 9.50 to 10.40. The IC50 in assay [2] is 25.1 to 158 nM.

Turning to `Cc1cccc(-c2nc(Nc3ccnc(Nc4ccc(NC(=O)[C@H]5C[C@@H](N)C5)cc4)n3)c3cccn3n2)n1` [Compound 1030, 3-amino-N-[4-[[4-[[2-(6-methyl-2-pyridyl)pyrrolo[2,1-f][1,2,4]triazin-4-yl]amino]pyrimidin-2-yl]amino]phenyl] cyclobutanecarboxamide], the pKi in assay [1] is 9.50 to 10.40. Further, in assay [2], the IC50 is 25.1 to 158 nM.

For the molecule `Cc1cccc(-c2nc(Nc3ccnc(Nc4ccc(NC(=O)C5(CO)CNC5)cc4)n3)c3cccn3n2)n1` [Compound 1031, 3-(hydroxymethyl)-N-[4-[[4-[[2-(6-methyl-2-pyridyl)pyrrolo[2,1-f][1,2,4]triazin-4-yl]amino]pyrimidin-2-yl]amino]phenyl]azetidine-3-carboxamide], the pKi in assay [1] was 9.50 to 10.40. The IC50 in assay [2] was 25.1 to 158 nM.

What is called pKi is the Ki on a negative log10 scale, so that one unit is a factor of ten.
